This is an account of results in PMC11062922 (Nature Chemical Biology, 2023).

One experiment has as its target T1, ABL2 (Homo sapiens, UniProt P42684).
T1 construct: endogenous in cells
In words: Kinobeads two-dose competition binding: ABL2. The note with it: sheet CATDS matrix 2; Gene Name ABL2.

Another experiment deals with T2, AAK1 (Homo sapiens, UniProt Q2M2I8).
T2 construct: to maximize the representation of endogenous proteins; endogenous in cells
In words: Kinobeads two-dose competition binding: AAK1.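 For all read-outs here: kinobeads competition pulldown from cell lysate, compound preincubated 45 min at 4 °C, bead-bound protein measured by label-free mass spectrometry against DMSO vehicle control.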 The note with it: for CATDS: sheet CATDS matrix 2, Gene Name AAK1.

A further experiment concerns the target ABL1 (Homo sapiens, UniProt P00519). In words: Kinobeads two-dose competition binding: ABL1. The conditions noted are these: sheet CATDS matrix 2; Gene Name ABL1.
The target in another experiment is T3, ACAD11 (Homo sapiens, UniProt Q709F0).
T3 construct: endogenous in cells
T3 sequence (Q709F0 1-780): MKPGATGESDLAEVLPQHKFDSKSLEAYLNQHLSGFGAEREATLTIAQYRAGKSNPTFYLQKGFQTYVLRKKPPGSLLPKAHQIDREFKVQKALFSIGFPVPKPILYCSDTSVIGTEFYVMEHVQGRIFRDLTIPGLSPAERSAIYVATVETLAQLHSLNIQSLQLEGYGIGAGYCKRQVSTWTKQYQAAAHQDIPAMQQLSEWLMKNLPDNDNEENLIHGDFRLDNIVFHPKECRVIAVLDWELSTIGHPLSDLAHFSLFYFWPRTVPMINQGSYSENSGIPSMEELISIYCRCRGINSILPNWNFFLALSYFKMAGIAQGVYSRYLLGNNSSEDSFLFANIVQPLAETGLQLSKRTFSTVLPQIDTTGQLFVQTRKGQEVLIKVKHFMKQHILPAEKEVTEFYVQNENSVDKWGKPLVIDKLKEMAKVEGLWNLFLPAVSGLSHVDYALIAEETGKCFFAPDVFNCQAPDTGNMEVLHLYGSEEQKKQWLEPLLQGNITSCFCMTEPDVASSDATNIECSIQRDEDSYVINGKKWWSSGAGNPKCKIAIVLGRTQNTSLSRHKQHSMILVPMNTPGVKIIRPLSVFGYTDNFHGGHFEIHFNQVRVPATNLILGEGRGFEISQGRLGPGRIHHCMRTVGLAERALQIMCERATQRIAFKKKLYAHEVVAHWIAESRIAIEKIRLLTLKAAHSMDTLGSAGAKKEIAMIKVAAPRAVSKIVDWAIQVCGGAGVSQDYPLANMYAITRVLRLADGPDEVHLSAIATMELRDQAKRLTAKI
Put plainly: Kinobeads two-dose competition binding: ACAD11. The note with it: sheet CATDS matrix 2; Gene Name ACAD11.

The target in a further experiment is T4, ACOX1 (Homo sapiens, UniProt Q15067).
T4 construct: endogenous in cells
T4 sequence (Q15067 1-660): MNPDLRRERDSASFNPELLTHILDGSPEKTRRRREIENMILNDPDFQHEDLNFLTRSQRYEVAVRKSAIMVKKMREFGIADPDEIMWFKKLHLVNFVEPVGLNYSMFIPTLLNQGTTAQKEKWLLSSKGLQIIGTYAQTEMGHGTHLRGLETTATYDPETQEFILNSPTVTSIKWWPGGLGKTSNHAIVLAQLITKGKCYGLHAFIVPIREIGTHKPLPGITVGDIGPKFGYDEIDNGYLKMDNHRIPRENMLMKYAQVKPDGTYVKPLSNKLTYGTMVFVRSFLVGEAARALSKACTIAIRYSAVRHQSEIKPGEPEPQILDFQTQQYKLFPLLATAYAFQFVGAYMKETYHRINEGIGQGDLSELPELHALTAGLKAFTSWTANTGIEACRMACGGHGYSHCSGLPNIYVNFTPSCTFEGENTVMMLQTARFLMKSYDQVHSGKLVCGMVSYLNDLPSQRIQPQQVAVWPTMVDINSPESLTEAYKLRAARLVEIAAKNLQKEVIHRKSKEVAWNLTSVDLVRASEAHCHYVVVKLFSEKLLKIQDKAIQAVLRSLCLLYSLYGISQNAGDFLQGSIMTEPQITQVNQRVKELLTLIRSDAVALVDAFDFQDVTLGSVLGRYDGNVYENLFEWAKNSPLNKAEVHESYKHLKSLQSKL
Put plainly: Kinobeads two-dose competition binding: ACOX1.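 For all read-outs here: competition of compounds with immobilized broad-spectrum kinase inhibitor beads in cell lysate at 100 and 1,000 nM, 45 min at 4 °C, bead-bound protein quantified by label-free MS versus DMSO.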 The conditions noted are these: for CATDS: sheet CATDS matrix 2, Gene Name ACOX1.

T1 sequence (P42684 whole entry): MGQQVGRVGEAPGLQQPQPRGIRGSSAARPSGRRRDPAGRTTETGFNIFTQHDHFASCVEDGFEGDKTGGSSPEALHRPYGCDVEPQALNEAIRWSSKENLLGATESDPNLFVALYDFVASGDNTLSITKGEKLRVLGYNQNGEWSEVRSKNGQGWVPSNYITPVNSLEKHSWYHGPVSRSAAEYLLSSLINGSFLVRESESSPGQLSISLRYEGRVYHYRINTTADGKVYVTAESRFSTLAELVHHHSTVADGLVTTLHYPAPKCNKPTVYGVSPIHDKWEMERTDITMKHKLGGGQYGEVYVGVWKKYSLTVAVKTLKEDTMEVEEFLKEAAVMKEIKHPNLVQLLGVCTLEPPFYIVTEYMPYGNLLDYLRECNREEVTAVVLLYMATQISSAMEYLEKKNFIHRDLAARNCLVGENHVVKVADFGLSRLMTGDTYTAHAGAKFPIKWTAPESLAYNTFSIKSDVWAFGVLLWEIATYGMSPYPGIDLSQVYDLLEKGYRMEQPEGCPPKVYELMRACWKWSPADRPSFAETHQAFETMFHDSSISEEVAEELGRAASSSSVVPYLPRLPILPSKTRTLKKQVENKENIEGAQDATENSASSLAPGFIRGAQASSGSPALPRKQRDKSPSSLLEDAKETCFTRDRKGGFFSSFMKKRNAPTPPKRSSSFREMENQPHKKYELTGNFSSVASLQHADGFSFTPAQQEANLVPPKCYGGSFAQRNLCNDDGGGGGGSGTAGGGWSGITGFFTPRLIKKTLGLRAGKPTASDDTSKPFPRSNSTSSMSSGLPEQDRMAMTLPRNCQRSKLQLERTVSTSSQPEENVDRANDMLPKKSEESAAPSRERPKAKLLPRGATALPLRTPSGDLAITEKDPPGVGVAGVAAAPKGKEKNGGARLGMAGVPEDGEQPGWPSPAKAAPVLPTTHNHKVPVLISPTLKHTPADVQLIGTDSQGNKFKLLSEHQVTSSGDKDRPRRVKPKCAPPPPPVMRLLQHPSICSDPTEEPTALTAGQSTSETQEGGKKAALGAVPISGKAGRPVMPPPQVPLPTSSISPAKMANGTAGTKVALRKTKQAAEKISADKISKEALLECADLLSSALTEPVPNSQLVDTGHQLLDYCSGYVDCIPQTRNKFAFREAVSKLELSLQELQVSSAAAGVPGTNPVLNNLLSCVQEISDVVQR
Chain of ABL1 (P00519 28-1130 limits assumed): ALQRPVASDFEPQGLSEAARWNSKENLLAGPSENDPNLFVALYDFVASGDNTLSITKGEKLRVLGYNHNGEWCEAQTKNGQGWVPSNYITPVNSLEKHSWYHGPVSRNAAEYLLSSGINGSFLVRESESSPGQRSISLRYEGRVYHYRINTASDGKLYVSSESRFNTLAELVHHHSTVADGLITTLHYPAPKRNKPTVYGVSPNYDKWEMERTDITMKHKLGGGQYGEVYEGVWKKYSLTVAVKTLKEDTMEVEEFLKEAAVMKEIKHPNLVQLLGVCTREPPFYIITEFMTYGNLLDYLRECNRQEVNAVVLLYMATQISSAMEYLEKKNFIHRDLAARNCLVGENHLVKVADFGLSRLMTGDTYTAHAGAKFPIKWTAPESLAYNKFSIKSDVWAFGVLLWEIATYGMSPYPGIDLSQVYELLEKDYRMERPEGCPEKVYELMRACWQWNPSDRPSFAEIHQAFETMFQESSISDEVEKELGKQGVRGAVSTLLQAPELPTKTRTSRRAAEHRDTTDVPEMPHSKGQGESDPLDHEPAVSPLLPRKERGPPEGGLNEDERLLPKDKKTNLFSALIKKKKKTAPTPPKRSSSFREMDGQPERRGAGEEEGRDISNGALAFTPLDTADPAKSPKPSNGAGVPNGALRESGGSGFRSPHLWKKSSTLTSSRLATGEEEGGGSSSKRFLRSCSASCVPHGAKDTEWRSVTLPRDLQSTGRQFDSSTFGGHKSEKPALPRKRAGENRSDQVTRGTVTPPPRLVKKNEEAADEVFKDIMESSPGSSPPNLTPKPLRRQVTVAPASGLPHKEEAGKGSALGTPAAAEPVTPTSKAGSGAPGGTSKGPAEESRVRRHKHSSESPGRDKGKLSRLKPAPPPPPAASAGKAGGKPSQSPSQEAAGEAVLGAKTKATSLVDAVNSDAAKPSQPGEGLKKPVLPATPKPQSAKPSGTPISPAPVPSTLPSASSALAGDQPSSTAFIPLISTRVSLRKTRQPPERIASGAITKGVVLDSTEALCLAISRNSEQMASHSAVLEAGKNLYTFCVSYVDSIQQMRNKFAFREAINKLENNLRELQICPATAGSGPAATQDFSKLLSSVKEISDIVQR
T2 sequence (Q2M2I8 whole entry): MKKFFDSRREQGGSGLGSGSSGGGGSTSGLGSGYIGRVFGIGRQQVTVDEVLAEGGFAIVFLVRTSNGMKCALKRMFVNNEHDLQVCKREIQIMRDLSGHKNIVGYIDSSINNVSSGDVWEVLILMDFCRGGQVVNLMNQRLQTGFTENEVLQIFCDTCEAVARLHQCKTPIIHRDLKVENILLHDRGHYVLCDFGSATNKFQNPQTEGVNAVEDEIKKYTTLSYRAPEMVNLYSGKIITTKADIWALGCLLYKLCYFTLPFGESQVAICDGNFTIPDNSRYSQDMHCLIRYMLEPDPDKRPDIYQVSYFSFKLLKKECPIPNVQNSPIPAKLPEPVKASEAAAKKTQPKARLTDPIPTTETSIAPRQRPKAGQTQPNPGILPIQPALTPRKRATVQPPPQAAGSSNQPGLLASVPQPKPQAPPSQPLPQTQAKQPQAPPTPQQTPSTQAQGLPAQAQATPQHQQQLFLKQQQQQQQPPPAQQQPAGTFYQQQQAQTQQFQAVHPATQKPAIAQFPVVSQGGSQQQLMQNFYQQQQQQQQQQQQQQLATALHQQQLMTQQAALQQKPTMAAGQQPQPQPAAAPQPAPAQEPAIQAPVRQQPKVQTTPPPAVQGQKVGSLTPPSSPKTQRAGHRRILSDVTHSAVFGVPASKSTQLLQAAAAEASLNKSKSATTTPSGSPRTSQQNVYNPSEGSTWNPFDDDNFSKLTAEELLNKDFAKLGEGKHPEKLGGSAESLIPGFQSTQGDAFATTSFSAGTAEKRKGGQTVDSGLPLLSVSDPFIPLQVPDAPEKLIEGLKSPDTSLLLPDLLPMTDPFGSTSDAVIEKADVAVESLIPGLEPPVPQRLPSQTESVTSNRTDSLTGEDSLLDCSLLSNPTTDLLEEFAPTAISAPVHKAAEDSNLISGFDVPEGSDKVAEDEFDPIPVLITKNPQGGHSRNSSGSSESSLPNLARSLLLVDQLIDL

As to `Cc1ccc(-n2nc(C(C)(C)C)cc2NC(=O)Nc2ccc(OCCN3CCOCC3)cc2)cc1` [BIRB0876BS], the CATDS at ABL2, at AAK1, on ABL1, on ACAD11 and on ACOX1 was 0 each time.

With `NCC1CCC(CNc2nc(NCc3ccccc3OC(F)(F)F)ncc2[N+](=O)[O-])CC1` (stereo not drawn) [BIRZ0518XX], the CATDS at ABL2, on AAK1, at ABL1, on ACAD11 and at ACOX1 was 0 each time.

For `C=CC(=O)Nc1cc(-n2c(=O)ccc3cnc4ccc(-c5ccc(NS(C)(=O)=O)cc5)cc4c32)ccc1C` [BMX-IN-1], the CATDS at ABL2, at AAK1, at ABL1, on ACAD11 and at ACOX1 was 0 in each case.

`CCS(=O)(=O)N1CC(CC#N)(n2cc(-c3ncnc4[nH]ccc34)cn2)C1` [Baricitinib, reference compound]: the CATDS at ABL2 stood at 0; at AAK1 it was 0.1267; at ABL1 it was 0; at ACAD11, 0; on ACOX1, 0.

For the compound `Cn1cnc2c(F)c(Nc3ccc(Br)cc3F)c(C(=O)NOCCO)cc21` [Binimetinib, reference compound], the CATDS at ABL2, at AAK1, on ABL1, on ACAD11 and on ACOX1 was 0 in each case.

For the compound `COc1cc(N2CCC(N3CCN(C)CC3)CC2)ccc1Nc1ncc(Cl)c(Nc2ccccc2P(C)(C)=O)n1` [Brigatinib, reference compound], the CATDS came out at 0 on ABL2; 0.01731 at AAK1; 0 on ABL1; 0 at ACAD11; 0 at ACOX1.

Consider `COc1cc(Nc2ccnc3ccc(Br)cc23)cc(OC)c1OC` [CA93.0], for which the CATDS on ABL2, at AAK1, at ABL1, at ACAD11 and on ACOX1 was 0 each time.

Take `COc1cc2nc(-c3cc(F)ccc3O)nc(N[C@@H]3CNC[C@H]3C(C)(C)O)c2cc1OC` [CCT241533]: the CATDS at ABL2, on AAK1, on ABL1, on ACAD11 and on ACOX1 was 0 in each case.

Regarding `COc1cc(Nc2cnc(C#N)c(O[C@H](C)CN(C)C)n2)ncc1-c1cnn(C)c1` [CCT244747], the CATDS at ABL2, on AAK1, at ABL1, on ACAD11 and on ACOX1 was 0 in each case.

`COc1cc2nccc(Oc3ccc(NC(=O)C4(C(=O)Nc5ccc(F)cc5)CC4)cc3)c2cc1OC` [Cabozantinib, reference compound]: the CATDS on ABL2, on AAK1, on ABL1, on ACAD11 and on ACOX1 was 0 throughout.

For `Cc1cc(Nc2ncc(Cl)c(Nc3ccccc3S(=O)(=O)C(C)C)n2)c(OC(C)C)cc1C1CCNCC1` [Ceritinib, reference compound], the CATDS on ABL2, at AAK1, on ABL1, at ACAD11 and on ACOX1 was 0 in each case.

Consider `O=C(c1ccc(F)c(F)c1Nc1ccc(I)cc1F)N1CC(O)([C@@H]2CCCCN2)C1` [Cobimetinib, reference compound], for which the CATDS at ABL2, on AAK1, at ABL1, on ACAD11 and at ACOX1 was 0 throughout.

Regarding `Cc1cn(-c2cc(NC(=O)c3ccc4c(c3)CN(c3cncnc3)C[C@@H]4C)cc(C(F)(F)F)c2)cn1` [Compound D2202-1], the CATDS at ABL2, on AAK1, on ABL1, on ACAD11 and at ACOX1 was 0 in each case.

With `COc1c(OCCCN2CCOCC2)ccc2c1N=C(NC(=O)c1cnc(N)nc1)N1CCN=C21` [Copanlisib, reference compound], the CATDS at ABL2, at AAK1, at ABL1, on ACAD11 and at ACOX1 was 0 throughout.

As to `CCN1CCN(Cc2ccc(C(=O)Nc3ccc(C)c(Oc4ccc5c(c4)CC(=O)N5)c3)cc2C(F)(F)F)CC1` [DDR1-in-1], the CATDS on ABL2, on AAK1, on ABL1, on ACAD11 and on ACOX1 was 0 each time.

As to `Cn1cc(C2=C(c3cn(C4CCN(Cc5ccccn5)CC4)c4ccccc34)C(=O)NC2=O)c2ccccc21` [Enzastaurin, reference compound], the CATDS at ABL2, on AAK1, at ABL1, on ACAD11 and at ACOX1 was 0 throughout.

In the case of `CN(C)C(=O)/C(C#N)=C/c1ccc(-c2nc3cnc4[nH]ccc4c3n2C2CCCCC2)o1` [FM-381], the CATDS on ABL2, at AAK1, at ABL1, at ACAD11 and at ACOX1 was 0 in each case. In addition, the potency estimated from few doses on AAK1 (sheet "Kinobeads Drugmatrix - all", unit inferred, same values below 1000 recur in sheet "nanomolar", read-out: Kinobeads Drugmatrix - all: apparent Kd, AAK1) is over 1000 nM.

Take `O=S(=O)(c1cccc2cnccc12)N1CCCNCC1` [Fasudil, reference compound]: the CATDS at ABL2, at AAK1, at ABL1, at ACAD11 and at ACOX1 was 0 throughout.

Consider `COc1cc(Nc2ncc(F)c(Nc3ccc4c(n3)N(COP(=O)(O)O)C(=O)C(C)(C)O4)n2)cc(OC)c1OC` [Fostamatinib, reference compound], for which the CATDS on ABL2, at AAK1, on ABL1, at ACAD11 and on ACOX1 was 0 in each case.

In the case of `Fc1ccc(-c2nc3n(c2-c2ccncc2)CCS3)cc1` [GI98581X], the CATDS on ABL2, on AAK1, on ABL1, on ACAD11 and on ACOX1 was 0 throughout.

In the case of `COc1ccc2ncnc(Nc3ccc(OCc4ccccc4)cc3)c2c1` [GI261520A], the CATDS at ABL2, on AAK1, at ABL1, on ACAD11 and on ACOX1 was 0 throughout.

As for `Oc1ccc2ncnc(Nc3ccc(OCc4ccccc4)cc3)c2c1` [GI262866A], the CATDS on ABL2 amounted to 0; at AAK1, 0; on ABL1, 0; at ACAD11 it was 0; on ACOX1, 0.07628. Also, the potency estimated from few doses at ACOX1 (sheet "Kinobeads Drugmatrix -nanomolar" (only nanomolar interactions), read-out: Kinobeads Drugmatrix -nanomolar: apparent Kd, ACOX1) was 830 nM.

`O=C1Nc2ccccc2/C1=C1\CCc2cc(O)ccc21` [GR105659X]: the CATDS on ABL2, at AAK1, on ABL1, on ACAD11 and at ACOX1 was 0 throughout.
